The values that follow come from ChEMBL document CHEMBL3813616, “Discovery of novel 7-azaindoles as PDK1 inhibitors” (Bioorg Med Chem Lett, 2016).

In experiment [1] the target is T1, 3-phosphoinositide-dependent protein kinase 1 (Homo sapiens) (UniProt O15530).
T1 sequence (whole entry): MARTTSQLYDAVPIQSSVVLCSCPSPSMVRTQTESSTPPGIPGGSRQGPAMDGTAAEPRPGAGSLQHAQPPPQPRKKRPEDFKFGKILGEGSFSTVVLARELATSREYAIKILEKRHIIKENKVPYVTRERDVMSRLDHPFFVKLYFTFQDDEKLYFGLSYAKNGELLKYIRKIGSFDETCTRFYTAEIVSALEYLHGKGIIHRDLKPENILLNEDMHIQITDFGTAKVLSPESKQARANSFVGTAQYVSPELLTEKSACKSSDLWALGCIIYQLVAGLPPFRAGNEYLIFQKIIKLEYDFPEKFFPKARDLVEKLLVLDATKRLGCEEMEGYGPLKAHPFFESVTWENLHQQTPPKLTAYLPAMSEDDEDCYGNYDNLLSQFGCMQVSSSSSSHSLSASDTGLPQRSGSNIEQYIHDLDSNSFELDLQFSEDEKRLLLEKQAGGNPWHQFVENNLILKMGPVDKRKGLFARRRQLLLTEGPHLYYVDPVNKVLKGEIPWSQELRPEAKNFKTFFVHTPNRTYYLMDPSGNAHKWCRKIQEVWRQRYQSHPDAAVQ
Nature of the experiment: Selectivity ratio of IC50 for PDK1-mediated AKT phosphorylation at Thr308 in human PC3 cells to IC50 for human His6-tagged PDK1. Type of experiment: cell-based. The note with it: PC-3.

For experiment [2], the target named is Homeodomain-interacting protein kinase 3 (Homo sapiens) (UniProt Q9H422). Briefly: Inhibition of human HIPK3 (161 to 562 residues) assessed as enzyme activity at 1 uM using 33P ATP by radioactive filter binding assay. More on the design: scale not given: the % may be the effect or the level left.
For experiment [3], the target named is Serine/threonine-protein kinase STK11 (Homo sapiens) (UniProt Q15831). Nature of the experiment: Inhibition of human LKB1 (1 to 433 residues) assessed as enzyme activity at 1 uM using 33P ATP by radioactive filter binding assay. More on the design: scale not given: the % may be the effect or the level left.
The target of experiment [4] is Serine/threonine-protein kinase MARK2 (Homo sapiens) (UniProt Q7KZI7). Nature of the experiment: Inhibition of human MARK2 (2 to 691 residues) assessed as enzyme activity at 1 uM using 33P ATP by radioactive filter binding assay. More on the design: scale not given: the % may be the effect or the level left.
Experiment [5] concerns the target Mitogen-activated protein kinase kinase kinase 1 (Homo sapiens) (UniProt Q13233). Nature of the experiment: Inhibition of human MEKK1 (877 to 1563 residues) assessed as enzyme activity at 1 uM using 33P ATP by radioactive filter binding assay. More on the design: scale not given: the % may be the effect or the level left.
The target of experiment [6] is Dual specificity mitogen-activated protein kinase kinase 2 (Homo sapiens) (UniProt P36507). Nature of the experiment: Inhibition of human MKK2 (2 to 400 residues) assessed as enzyme activity at 1 uM using 33P ATP by radioactive filter binding assay. More on the design: scale not given: the % may be the effect or the level left.
Experiment [7] has as its target Dual specificity mitogen-activated protein kinase kinase 6 (Homo sapiens) (UniProt P52564). Nature of the experiment: Inhibition of human MKK6 (2 to 334 residues) assessed as enzyme activity at 1 uM using 33P ATP by radioactive filter binding assay. More on the design: scale not given: the % may be the effect or the level left.
Experiment [8] has as its target Mitogen-activated protein kinase kinase kinase 11 (Homo sapiens) (UniProt Q16584). Nature of the experiment: Inhibition of human MLK3 (96 to 386 residues) assessed as enzyme activity at 1 uM using 33P ATP by radioactive filter binding assay. More on the design: scale not given: the % may be the effect or the level left.
The target of experiment [9] is Serine/threonine-protein kinase 16 (Homo sapiens) (UniProt O75716). Briefly: Inhibition of human MPSK1 (1 to 305 residues) assessed as enzyme activity at 1 uM using 33P ATP by radioactive filter binding assay. More on the design: scale not given: the % may be the effect or the level left.
Experiment [10] has as its target Serine/threonine-protein kinase Nek7 (Homo sapiens) (UniProt Q8TDX7). Nature of the experiment: Inhibition of NEK7 (unknown origin) assessed as enzyme activity at 1 uM using 33P ATP by radioactive filter binding assay. More on the design: scale not given: the % may be the effect or the level left.
For experiment [11], the target named is Serine/threonine-protein kinase PAK 2 (Homo sapiens) (UniProt Q13177). Nature of the experiment: Inhibition of human PAK2 (1 to 524 residues) assessed as enzyme activity at 1 uM using 33P ATP by radioactive filter binding assay. More on the design: scale not given: the % may be the effect or the level left.
Experiment [12] addresses Protein kinase C gamma type (Homo sapiens) (UniProt P05129). Nature of the experiment: Inhibition of human PKCgamma (1 to 697 residues) assessed as enzyme activity at 1 uM using 33P ATP by radioactive filter binding assay. More on the design: scale not given: the % may be the effect or the level left.
The target in experiment [13] is Ribosomal protein S6 kinase alpha-1 (Homo sapiens) (UniProt Q15418). Nature of the experiment: Inhibition of human RSK1 (1 to 735 residues) assessed as enzyme activity at 1 uM using 33P ATP by radioactive filter binding assay. More on the design: scale not given: the % may be the effect or the level left.
The target in experiment [14] is Mitogen-activated protein kinase kinase kinase 7 (Homo sapiens) (UniProt O43318). Nature of the experiment: Inhibition of human TAB1 fused TAK1 (1 to 303 residues) assessed as enzyme activity at 1 uM using 33P ATP by radioactive filter binding assay. More on the design: scale not given: the % may be the effect or the level left.
Experiment [15] deals with Dual specificity protein kinase TTK (Homo sapiens) (UniProt P33981). Nature of the experiment: Inhibition of human TTK (1 to 857 residues) assessed as enzyme activity at 1 uM using 33P ATP by radioactive filter binding assay. More on the design: scale not given: the % may be the effect or the level left.
For experiment [16], the target named is T2, 3-phosphoinositide-dependent protein kinase 1 (Homo sapiens, UniProt O15530).
T2 sequence (O15530 whole entry): T1 sequence (whole entry)
Briefly: Inhibition of human PDK1.

For experiment [17], the target named is Tyrosine-protein kinase ABL1 (Homo sapiens) (UniProt P00519). Briefly: Inhibition of human ABL (118 to 535 residues) assessed as enzyme activity at 1 uM using 33P ATP by radioactive filter binding assay. More on the design: scale not given: the % may be the effect or the level left.
Experiment [18] concerns the target Dual specificity protein kinase CLK2 (Homo sapiens) (UniProt P49760). Nature of the experiment: Inhibition of human CLK2 (138 to 499 residues) assessed as enzyme activity at 1 uM using 33P ATP by radioactive filter binding assay. More on the design: scale not given: the % may be the effect or the level left.
The target of experiment [19] is Eukaryotic translation initiation factor 2-alpha kinase 3 (Homo sapiens) (UniProt Q9NZJ5). Briefly: Inhibition of human EIF2AK3 (536 to 1116 residues) assessed as enzyme activity at 1 uM using 33P ATP by radioactive filter binding assay. More on the design: scale not given: the % may be the effect or the level left.
Experiment [20] addresses Ephrin type-A receptor 4 (Homo sapiens) (UniProt P54764). Nature of the experiment: Inhibition of human EPHA4 (570 to 986 residues) assessed as enzyme activity at 1 uM using 33P ATP by radioactive filter binding assay. More on the design: scale not given: the % may be the effect or the level left.
In experiment [21] the target is Ephrin type-B receptor 4 (Homo sapiens) (UniProt P54760). Briefly: Inhibition of human EPHB4 (561 to 987 residues) assessed as enzyme activity at 1 uM using 33P ATP by radioactive filter binding assay. More on the design: scale not given: the % may be the effect or the level left.
Experiment [22] has as its target Receptor tyrosine-protein kinase erbB-4 (Homo sapiens) (UniProt Q15303). Briefly: Inhibition of human HER4 (706 to 991 residues) assessed as enzyme activity at 1 uM using 33P ATP by radioactive filter binding assay. More on the design: scale not given: the % may be the effect or the level left.
Experiment [23] concerns the target Homeodomain-interacting protein kinase 1 (Homo sapiens) (UniProt Q86Z02). Briefly: Inhibition of human HIPK1 (158 to 555 residues) assessed as enzyme activity at 1 uM using 33P ATP by radioactive filter binding assay. More on the design: scale not given: the % may be the effect or the level left.
The target of experiment [24] is Phosphatidylinositol 4,5-bisphosphate 3-kinase catalytic subunit delta isoform (Homo sapiens) (UniProt O00329). Nature of the experiment: Inhibition of PI3K delta (unknown origin) at 10 uM.

Each structure is given as a SMILES string. pIC50: −log10 of the molar value.

Chain of Serine/threonine-protein kinase Nek7 (Homo sapiens) (Q8TDX7 whole entry, looked up, the tested form may be a part): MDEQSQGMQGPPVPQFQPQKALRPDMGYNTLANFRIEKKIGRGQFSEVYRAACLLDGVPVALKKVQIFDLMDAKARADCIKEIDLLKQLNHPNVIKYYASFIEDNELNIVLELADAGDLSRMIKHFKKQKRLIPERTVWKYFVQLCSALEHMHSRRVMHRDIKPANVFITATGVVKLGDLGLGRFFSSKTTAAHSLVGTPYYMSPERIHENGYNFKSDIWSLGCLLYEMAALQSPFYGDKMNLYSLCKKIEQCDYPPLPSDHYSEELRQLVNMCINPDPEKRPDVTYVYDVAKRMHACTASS
Chain of Homeodomain-interacting protein kinase 3 (Homo sapiens) (Q9H422 whole entry, looked up, the tested form may be a part): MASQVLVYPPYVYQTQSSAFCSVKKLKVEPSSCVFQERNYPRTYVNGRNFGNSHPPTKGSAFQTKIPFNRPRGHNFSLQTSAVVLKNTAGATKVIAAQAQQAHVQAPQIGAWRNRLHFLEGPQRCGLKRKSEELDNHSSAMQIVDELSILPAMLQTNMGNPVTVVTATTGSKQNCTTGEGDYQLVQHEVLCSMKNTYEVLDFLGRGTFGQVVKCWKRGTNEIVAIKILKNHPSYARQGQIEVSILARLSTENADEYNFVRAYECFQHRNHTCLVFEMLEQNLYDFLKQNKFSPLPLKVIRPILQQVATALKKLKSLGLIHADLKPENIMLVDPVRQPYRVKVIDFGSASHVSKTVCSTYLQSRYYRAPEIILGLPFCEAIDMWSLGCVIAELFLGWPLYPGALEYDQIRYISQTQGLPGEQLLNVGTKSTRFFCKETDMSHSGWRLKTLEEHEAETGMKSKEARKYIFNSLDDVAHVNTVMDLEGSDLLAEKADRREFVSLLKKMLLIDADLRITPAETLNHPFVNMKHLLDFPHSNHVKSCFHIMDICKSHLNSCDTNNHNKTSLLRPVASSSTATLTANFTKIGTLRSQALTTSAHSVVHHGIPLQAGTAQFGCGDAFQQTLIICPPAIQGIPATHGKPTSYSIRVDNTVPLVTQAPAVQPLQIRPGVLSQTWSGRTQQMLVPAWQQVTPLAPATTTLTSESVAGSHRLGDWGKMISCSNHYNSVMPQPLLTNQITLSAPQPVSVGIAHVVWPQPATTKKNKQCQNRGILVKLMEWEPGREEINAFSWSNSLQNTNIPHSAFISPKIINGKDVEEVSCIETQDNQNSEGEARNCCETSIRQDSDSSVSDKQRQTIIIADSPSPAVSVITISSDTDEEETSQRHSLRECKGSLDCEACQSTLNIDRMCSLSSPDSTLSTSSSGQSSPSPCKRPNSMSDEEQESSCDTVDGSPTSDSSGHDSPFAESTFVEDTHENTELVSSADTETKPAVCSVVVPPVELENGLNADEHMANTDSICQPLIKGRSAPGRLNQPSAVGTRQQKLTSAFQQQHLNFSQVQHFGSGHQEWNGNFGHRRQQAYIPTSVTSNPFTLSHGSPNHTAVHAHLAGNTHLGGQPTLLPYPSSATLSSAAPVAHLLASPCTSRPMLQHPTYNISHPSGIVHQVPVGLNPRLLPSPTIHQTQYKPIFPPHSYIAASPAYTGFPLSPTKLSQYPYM
Chain of Mitogen-activated protein kinase kinase kinase 7 (Homo sapiens) (O43318 whole entry, the tested form may be a part): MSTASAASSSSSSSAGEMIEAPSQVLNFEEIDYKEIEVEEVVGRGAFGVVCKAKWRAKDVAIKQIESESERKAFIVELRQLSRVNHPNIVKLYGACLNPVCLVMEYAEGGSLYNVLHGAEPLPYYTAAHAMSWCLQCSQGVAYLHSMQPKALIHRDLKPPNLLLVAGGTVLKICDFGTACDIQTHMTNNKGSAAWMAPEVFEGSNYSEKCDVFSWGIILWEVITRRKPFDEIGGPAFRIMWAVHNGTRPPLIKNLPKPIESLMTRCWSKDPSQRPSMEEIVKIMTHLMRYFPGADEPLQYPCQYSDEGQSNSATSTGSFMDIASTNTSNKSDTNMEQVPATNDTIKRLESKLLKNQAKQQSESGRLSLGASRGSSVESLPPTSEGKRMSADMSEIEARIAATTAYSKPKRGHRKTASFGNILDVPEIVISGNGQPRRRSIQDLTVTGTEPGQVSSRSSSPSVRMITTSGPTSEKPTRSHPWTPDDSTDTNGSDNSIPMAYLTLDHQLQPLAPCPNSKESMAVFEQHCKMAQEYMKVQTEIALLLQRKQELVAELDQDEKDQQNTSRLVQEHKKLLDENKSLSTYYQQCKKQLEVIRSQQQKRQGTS
Chain of Dual specificity mitogen-activated protein kinase kinase 2 (Homo sapiens) (P36507 whole entry, the tested form may be a part): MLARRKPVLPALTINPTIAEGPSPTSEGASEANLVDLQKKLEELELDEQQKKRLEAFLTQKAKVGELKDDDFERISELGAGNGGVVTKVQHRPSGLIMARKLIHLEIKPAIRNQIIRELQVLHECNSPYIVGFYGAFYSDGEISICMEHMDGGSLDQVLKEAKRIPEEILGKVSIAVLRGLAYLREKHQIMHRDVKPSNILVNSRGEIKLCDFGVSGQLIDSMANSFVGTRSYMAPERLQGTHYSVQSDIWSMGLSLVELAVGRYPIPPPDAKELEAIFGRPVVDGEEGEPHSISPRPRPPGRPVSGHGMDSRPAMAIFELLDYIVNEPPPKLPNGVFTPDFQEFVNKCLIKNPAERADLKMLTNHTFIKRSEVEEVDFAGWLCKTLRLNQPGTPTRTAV
Chain of Dual specificity mitogen-activated protein kinase kinase 6 (Homo sapiens) (P52564 whole entry, the tested form may be a part): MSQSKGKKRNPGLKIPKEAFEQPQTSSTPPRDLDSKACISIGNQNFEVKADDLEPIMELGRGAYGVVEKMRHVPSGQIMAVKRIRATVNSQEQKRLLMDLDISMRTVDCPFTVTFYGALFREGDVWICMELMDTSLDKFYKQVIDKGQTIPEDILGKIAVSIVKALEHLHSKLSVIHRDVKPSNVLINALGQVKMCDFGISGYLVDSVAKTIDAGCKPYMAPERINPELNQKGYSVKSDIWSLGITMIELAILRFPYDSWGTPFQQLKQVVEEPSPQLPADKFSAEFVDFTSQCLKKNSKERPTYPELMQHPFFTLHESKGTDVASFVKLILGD
Chain of Tyrosine-protein kinase ABL1 (Homo sapiens) (P00519 whole entry, the tested form may be a part): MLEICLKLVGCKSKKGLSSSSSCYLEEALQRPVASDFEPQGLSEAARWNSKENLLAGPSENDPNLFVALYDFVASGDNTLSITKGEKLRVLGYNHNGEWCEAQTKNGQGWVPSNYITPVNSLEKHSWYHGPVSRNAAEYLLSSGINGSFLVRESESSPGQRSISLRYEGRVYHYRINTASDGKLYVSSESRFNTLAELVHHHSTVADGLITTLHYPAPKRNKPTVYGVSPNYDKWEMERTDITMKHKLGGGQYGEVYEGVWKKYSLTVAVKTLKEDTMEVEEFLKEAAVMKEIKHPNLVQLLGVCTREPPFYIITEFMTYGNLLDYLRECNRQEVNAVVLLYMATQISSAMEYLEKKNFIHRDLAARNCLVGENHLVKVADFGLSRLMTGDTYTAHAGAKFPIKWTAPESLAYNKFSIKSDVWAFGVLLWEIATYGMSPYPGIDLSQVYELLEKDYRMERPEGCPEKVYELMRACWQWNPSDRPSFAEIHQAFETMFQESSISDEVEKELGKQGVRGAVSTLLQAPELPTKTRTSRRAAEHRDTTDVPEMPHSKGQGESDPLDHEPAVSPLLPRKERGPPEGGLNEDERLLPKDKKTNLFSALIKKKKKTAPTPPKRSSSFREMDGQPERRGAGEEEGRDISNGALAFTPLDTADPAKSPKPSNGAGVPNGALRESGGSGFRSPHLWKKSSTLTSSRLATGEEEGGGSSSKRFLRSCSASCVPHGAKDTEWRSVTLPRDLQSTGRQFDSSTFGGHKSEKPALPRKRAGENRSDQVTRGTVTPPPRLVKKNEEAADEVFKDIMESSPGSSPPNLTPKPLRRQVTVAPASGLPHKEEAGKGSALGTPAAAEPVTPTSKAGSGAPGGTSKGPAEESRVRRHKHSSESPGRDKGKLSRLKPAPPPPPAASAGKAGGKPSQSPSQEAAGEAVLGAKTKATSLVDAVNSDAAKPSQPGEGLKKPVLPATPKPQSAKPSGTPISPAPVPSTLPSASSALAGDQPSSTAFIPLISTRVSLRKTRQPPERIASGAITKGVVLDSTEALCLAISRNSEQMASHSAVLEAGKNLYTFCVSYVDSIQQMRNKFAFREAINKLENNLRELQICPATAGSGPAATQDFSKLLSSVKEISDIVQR
Chain of Dual specificity protein kinase CLK2 (Homo sapiens) (P49760 whole entry, looked up, the tested form may be a part): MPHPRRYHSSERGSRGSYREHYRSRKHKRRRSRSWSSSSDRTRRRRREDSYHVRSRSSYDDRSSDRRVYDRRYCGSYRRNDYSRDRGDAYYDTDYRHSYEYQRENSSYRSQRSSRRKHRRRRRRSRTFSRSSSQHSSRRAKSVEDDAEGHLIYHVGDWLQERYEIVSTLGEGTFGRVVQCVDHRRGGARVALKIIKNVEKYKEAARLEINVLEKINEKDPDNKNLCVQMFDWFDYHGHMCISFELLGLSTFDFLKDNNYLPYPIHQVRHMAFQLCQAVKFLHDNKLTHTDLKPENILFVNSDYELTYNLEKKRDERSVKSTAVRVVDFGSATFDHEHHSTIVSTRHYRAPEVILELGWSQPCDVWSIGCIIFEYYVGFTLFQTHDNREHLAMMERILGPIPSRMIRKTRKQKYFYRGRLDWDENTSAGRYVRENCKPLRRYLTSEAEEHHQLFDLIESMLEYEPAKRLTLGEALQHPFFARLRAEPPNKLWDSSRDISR
Chain of Serine/threonine-protein kinase PAK 2 (Homo sapiens) (Q13177 whole entry, the tested form may be a part): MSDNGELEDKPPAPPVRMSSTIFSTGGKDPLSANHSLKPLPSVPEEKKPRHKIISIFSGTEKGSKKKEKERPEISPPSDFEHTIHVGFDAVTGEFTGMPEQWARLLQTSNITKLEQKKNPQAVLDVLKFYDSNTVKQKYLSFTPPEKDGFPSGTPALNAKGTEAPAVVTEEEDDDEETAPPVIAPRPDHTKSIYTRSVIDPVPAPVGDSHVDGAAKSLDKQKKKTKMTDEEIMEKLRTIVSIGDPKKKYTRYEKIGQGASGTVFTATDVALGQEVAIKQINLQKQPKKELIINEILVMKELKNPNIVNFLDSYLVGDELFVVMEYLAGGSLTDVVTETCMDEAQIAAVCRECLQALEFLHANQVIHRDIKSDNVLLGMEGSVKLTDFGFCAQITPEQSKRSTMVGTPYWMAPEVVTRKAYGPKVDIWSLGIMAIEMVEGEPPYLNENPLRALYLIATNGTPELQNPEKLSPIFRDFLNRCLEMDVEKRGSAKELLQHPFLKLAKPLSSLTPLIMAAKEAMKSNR

For `CCCCc1cc(-c2c[nH]c3ncc(-c4cnn(C5CCNCC5)c4)cc23)nc(N)n1`, the Ratio IC50 in [1] was found to be 30.
`Nc1nccc(-c2c[nH]c3ncccc23)n1` [MERIOLIN 1]: the Activity is -69% in experiment [2]; -18% in experiment [3]; -23% in [4]; -10% in experiment [5]; -34% in [6]; -13% in experiment [7]. Moreover, the Activity is -35% in experiment [8]; -4% in experiment [9]; -2% in experiment [10]; 1% in experiment [11]; -5% in experiment [12]; -69% in experiment [13]. The Activity in experiment [14] was -82%; in experiment [15] it was -57%; in experiment [17], 1%; in [18], -98%; in experiment [19], -9%; in experiment [20] it was 15%. In addition, the Activity in experiment [21] is 4%; in [22] it was -17%; in [23], -75%. The same molecule had a pIC50 in [16] of 5.23.
Consider `CCCCc1cc(-c2c[nH]c3ncccc23)nc(N)n1`, for which the Activity is -52% in experiment [2] and 4% in experiment [10].
The molecule `CCc1cc(-c2c[nH]c3ncc(-c4cnn(C5CCNCC5)c4)cc23)nc(N)n1` registered an inhibition in experiment [24] of 77%.
